This passage reports IC50 results from ChEMBL document CHEMBL5120887, “Hybrid Diterpenic Meroterpenoids from an Endophytic Penicillium sp. Induced by Chemical Epigenetic Manipulation” (J Nat Prod, 2022).

The assay concerns the target Acetylcholinesterase (Homo sapiens, UniProt P22303). Kind of assay: Inhibition of AChE in human Erythrocyte incubated for 20 mins by Ellman reagent based spectrophotometry. It is filed as cell-based.

Sequence of Acetylcholinesterase (P22303 whole entry): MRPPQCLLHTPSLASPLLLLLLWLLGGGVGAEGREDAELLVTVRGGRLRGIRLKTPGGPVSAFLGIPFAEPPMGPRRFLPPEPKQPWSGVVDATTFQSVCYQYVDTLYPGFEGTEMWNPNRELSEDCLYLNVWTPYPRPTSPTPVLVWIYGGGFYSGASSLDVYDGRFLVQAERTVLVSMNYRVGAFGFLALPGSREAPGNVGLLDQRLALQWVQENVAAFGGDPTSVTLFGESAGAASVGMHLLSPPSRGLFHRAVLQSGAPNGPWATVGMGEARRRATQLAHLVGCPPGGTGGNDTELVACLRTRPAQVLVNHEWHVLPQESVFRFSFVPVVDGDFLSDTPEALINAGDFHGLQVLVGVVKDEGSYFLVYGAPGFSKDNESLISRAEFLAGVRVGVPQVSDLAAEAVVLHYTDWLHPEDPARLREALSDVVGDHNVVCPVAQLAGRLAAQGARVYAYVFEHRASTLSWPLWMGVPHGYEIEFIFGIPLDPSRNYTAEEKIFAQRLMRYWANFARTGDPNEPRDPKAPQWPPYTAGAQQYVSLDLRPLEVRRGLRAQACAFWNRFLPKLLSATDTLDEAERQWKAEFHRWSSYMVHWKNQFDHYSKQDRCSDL

`C=C(C)[C@]1(O)CC[C@@]2(C)C3=Cc4c(cc(-c5cccnc5)oc4=O)O[C@]3(C)[C@@H](O)C[C@@H]2[C@@]12CCC(=O)OC2`: the midpoint of inhibition, the IC50, lay at 13.9 µM.
